# Assay results from PMC6390583 (BMC rheumatology, 2018).
# Where “and” joins values, the source holds several entries; their conditions need not be identical. Identical values can stand only once.
# Legend:
# Assay in all cases: trFRET binding kinome profiling
# Rsk2 = Rsk2 (Homo sapiens, UniProt P51812)
# Procedure: (§1) JAK activity assays using isolated kinase domains in the presence of 0.1 mM ATP and trFRET kinome profiling were conducted as described previously (17).
# TTK = TTK (Homo sapiens, UniProt P33981)
# Procedure: as §1
# PDGFRA V561D = PDGFRA V561D (Homo sapiens, UniProt P16234, V561D)
# Procedure: as §1
# CAMK2A = CAMK2A (Homo sapiens, UniProt Q9UQM7)
# Procedure: as §1
# STK33 = STK33 (Homo sapiens, UniProt Q9BYT3)
# Procedure: as §1
# MEK1 = MEK1 (Homo sapiens, UniProt Q02750)
# Procedure: as §1
# MAP3K10 = MAP3K10 (Homo sapiens, UniProt Q02779)
# Procedure: as §1
# SGK1 = SGK1 (Homo sapiens, UniProt O00141)
# Procedure: as §1
# InsR = InsR (Homo sapiens, UniProt P06213)
# Procedure: as §1
# cMET = cMET (Homo sapiens, UniProt P08581)
# Procedure: as §1
# JNK2 = JNK2 (Homo sapiens, UniProt P45984)
# Procedure: as §1
# TrkC = TrkC (Homo sapiens, UniProt Q16288)
# Procedure: as §1
# MAP2K3 = MAP2K3 (Homo sapiens, UniProt P46734)
# Procedure: as §1
# BTK = BTK (Homo sapiens, UniProt Q06187)
# Procedure: as §1
# TNK2 = TNK2 (Homo sapiens, UniProt Q07912)
# Procedure: as §1
# PKCtheta = PKCtheta (Homo sapiens, UniProt Q04759)
# Procedure: as §1
# Gsk3b = Gsk3b (Homo sapiens, UniProt P49841)
# Procedure: as §1
# MEK2 = MEK2 (Homo sapiens, UniProt P36507)
# Procedure: as §1
# FAK = FAK (Homo sapiens, UniProt Q05397)
# Procedure: as §1
# PAK4KD = molecular target: T1, PAK4KD (Homo sapiens, UniProt O96013)
# T1 construct: PAK4KD
# Procedure: as §1
# LCK = LCK (Homo sapiens, UniProt P06239)
# Procedure: as §1
# Plk3 = Plk3 (Homo sapiens, UniProt Q9H4B4)
# Procedure: as §1
# EGFR = EGFR (Homo sapiens, UniProt P00533)
# Procedure: as §1
# Prkcn = Prkcn (Homo sapiens, UniProt O94806)
# Procedure: as §1
# BRAF = BRAF (Homo sapiens, UniProt P15056)
# Procedure: as §1
# CLK2 = CLK2 (Homo sapiens, UniProt P49760)
# Procedure: as §1
# Fyn = Fyn (Homo sapiens, UniProt P06241)
# Procedure: as §1
# Ck1alpha1 = Ck1alpha1 (Homo sapiens, UniProt P48729)
# Procedure: as §1
# CDK7/Cyclin H/Mat1 = CDK7/Cyclin H/Mat1 (Homo sapiens, UniProt P50613)
# Procedure: as §1
# CAMKK2 = CAMKK2 (Homo sapiens, UniProt Q96RR4)
# Procedure: as §1
# Gsk3a = Gsk3a (Homo sapiens, UniProt P49840)
# Procedure: as §1
# Aurora 1 = Aurora 1 (Homo sapiens, UniProt Q96GD4)
# Procedure: as §1
# Nek2 = Nek2 (Homo sapiens, UniProt P51955)
# Procedure: as §1
# Rock1 = Rock1 (Homo sapiens, UniProt Q13464)
# Procedure: as §1
# CDK8/Cyclin C = CDK8/Cyclin C (Homo sapiens, UniProt P49336)
# Procedure: as §1
# Src = Src (Homo sapiens, UniProt P12931)
# Procedure: as §1
# PKCzeta = PKCzeta (Homo sapiens, UniProt Q05513)
# Procedure: as §1
# DDR1 = DDR1 (Homo sapiens, UniProt Q08345)
# Procedure: as §1
# Wee1 = Wee1 (Homo sapiens, UniProt P30291)
# Procedure: as §1
# TYRO3 = TYRO3 (Homo sapiens, UniProt Q06418)
# Procedure: as §1
# IKKE = IKKE (Homo sapiens, UniProt Q14164)
# Procedure: as §1
# CSF1R = CSF1R (Homo sapiens, UniProt P07333)
# Procedure: as §1
# TAOK2 = TAOK2 (Homo sapiens, UniProt Q9UL54)
# Procedure: as §1
# Erk2 = Erk2 (Homo sapiens, UniProt P28482)
# Procedure: as §1
# TBK1 = TBK1 (Homo sapiens, UniProt Q9UHD2)
# Procedure: as §1
# Syk = Syk (Homo sapiens, UniProt P43405)
# Procedure: as §1
# Rock1, sequence (Q13464 whole entry, species assumed): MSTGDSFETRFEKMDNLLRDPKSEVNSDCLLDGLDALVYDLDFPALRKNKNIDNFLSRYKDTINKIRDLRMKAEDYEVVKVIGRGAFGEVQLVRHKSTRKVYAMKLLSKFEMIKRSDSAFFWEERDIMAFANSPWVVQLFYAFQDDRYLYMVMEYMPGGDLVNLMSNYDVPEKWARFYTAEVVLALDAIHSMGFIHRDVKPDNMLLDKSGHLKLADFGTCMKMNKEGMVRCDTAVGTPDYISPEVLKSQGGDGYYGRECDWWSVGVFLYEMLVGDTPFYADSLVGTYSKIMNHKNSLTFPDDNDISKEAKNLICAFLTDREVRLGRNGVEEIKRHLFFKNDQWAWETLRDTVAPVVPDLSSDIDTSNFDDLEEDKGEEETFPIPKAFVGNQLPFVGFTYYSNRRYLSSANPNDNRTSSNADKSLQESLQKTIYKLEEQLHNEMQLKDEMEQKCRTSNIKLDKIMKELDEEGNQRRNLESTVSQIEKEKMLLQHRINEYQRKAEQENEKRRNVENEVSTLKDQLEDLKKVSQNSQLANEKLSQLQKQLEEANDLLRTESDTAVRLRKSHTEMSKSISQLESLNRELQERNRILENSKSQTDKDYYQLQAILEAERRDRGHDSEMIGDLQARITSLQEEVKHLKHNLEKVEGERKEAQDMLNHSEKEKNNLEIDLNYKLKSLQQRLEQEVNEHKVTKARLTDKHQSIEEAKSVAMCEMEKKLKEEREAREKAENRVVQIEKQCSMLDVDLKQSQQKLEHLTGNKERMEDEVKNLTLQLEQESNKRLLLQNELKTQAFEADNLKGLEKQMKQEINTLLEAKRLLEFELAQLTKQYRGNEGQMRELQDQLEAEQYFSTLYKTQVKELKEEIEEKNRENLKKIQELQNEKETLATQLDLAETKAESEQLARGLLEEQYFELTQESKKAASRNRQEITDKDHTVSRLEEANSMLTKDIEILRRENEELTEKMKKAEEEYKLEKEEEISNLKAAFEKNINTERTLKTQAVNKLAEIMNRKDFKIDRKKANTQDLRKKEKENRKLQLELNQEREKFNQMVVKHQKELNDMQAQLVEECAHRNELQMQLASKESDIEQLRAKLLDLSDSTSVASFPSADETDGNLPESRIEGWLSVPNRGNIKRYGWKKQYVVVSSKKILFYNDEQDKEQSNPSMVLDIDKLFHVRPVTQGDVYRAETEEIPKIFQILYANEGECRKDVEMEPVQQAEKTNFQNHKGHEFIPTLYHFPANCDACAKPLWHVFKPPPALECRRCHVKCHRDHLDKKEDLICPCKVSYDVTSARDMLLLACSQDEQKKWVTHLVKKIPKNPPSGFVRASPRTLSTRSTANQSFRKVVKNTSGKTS
# PKCzeta, sequence (Q05513 whole entry): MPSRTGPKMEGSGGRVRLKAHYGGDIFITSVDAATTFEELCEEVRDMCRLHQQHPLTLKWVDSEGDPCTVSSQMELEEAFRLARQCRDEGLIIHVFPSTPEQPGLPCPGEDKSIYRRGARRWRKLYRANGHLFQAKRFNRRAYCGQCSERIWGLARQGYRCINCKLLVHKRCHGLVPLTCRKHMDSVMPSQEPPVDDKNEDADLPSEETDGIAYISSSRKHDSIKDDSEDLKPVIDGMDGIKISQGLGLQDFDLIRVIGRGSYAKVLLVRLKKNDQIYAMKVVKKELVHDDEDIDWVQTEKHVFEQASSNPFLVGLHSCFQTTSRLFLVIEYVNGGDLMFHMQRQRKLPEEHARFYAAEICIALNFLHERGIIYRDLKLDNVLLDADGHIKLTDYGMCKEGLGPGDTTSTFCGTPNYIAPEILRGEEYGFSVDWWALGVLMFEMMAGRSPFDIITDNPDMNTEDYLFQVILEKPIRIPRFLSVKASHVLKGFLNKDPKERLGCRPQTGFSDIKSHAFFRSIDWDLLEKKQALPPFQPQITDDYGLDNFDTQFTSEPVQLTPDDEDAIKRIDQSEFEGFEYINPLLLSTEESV
# cMET, sequence (P08581 25-1390): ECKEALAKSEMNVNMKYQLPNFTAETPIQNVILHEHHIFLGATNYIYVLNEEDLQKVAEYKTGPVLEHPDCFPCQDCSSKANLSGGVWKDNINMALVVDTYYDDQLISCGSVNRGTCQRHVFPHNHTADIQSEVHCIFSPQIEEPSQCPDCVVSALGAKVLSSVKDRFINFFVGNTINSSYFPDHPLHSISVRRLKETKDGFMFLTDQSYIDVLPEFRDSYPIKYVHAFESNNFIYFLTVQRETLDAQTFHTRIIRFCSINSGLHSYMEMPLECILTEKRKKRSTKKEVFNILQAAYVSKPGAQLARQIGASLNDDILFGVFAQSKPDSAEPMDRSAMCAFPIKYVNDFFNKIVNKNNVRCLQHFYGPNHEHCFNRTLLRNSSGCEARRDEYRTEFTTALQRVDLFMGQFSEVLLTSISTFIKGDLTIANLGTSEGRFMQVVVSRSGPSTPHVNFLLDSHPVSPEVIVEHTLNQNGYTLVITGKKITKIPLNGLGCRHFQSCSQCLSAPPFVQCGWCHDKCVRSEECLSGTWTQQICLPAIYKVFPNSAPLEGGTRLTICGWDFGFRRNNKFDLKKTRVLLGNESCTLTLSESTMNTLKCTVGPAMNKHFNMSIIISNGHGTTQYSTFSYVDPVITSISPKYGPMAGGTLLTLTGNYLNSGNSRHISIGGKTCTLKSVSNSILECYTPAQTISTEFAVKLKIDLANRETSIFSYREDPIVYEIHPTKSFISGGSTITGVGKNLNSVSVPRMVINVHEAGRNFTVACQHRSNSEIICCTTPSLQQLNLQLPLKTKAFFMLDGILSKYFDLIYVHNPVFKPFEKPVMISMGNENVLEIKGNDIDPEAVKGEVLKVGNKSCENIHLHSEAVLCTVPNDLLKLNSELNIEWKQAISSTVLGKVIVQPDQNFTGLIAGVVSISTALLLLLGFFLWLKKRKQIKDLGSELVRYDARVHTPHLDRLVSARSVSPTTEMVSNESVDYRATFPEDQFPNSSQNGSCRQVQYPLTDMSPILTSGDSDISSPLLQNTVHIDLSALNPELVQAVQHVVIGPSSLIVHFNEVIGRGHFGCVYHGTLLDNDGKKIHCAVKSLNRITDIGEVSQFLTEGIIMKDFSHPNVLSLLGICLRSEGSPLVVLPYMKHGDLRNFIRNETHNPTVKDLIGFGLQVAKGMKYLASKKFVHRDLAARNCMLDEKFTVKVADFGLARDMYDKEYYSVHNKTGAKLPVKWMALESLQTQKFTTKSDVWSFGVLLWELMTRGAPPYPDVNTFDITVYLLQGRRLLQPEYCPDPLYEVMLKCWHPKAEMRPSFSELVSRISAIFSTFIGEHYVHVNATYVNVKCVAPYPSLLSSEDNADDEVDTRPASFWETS
# Nek2, sequence (P51955 whole entry, species assumed): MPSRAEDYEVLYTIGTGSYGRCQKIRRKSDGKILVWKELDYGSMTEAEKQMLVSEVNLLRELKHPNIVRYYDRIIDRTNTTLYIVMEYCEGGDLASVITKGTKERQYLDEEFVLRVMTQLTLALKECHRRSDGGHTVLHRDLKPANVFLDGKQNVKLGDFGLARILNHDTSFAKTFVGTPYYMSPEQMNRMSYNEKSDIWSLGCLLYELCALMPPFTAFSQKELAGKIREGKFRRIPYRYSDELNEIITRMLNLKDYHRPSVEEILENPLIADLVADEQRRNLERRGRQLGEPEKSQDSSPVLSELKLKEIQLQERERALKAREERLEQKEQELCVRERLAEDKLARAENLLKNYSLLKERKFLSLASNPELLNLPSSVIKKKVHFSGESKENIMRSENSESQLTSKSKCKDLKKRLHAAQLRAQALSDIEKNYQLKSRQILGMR
# PDGFRA V561D, sequence (P16234 24-1089 V561D): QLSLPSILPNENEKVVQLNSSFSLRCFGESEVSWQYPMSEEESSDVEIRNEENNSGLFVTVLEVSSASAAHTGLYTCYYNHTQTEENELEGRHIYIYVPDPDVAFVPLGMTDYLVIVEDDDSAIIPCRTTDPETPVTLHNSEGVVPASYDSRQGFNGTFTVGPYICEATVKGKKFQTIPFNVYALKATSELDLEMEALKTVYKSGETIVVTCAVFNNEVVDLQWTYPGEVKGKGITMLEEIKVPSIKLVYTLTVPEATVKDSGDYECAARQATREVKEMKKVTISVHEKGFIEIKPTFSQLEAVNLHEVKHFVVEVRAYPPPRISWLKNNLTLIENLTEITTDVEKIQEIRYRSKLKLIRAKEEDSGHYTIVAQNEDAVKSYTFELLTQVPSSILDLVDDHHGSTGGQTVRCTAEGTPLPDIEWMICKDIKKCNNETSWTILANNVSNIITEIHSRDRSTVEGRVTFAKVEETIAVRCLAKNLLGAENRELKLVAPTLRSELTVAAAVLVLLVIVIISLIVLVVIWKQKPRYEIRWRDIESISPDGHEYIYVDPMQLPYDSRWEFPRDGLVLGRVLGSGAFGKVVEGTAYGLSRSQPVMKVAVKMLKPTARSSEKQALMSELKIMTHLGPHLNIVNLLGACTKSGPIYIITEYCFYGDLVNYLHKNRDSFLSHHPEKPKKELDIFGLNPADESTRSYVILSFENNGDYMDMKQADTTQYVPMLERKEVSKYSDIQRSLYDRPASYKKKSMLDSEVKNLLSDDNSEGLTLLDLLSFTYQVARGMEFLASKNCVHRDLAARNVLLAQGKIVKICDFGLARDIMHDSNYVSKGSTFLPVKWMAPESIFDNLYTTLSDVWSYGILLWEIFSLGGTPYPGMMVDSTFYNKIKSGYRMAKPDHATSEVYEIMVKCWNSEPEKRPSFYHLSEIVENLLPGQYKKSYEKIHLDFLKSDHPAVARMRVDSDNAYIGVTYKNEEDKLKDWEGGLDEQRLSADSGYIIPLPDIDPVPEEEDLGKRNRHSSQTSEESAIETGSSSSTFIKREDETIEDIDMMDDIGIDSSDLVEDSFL
# T1 sequence (O96013 321-572 limits assumed): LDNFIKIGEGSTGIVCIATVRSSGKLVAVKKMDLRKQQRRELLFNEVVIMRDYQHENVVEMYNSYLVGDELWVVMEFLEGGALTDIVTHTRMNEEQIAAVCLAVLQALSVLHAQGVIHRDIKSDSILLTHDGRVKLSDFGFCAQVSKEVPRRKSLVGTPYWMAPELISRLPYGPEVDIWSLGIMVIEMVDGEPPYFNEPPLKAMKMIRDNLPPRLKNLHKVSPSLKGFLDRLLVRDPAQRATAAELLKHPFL
structure (smiles),measurement,setting,value
"CC[C@@H]1CN(C(=O)NCC(F)(F)F)C[C@@H]1c1cnc2cnc3[nH]ccc3n12 [upadacitinib, (3S,4R)-3-ethyl-4-(3H-imidazo [1,2-a]pyrrolo [2,3-e]pyrazin-8-yl)-N-(2,2,2-trifluoroethyl) pyrrolidine-1-carboxamide]",IC50,Rsk2,> 9.6 µM
same,IC50,TTK,> 10 µM
same,IC50,PDGFRA V561D,> 10 µM
same,IC50,CAMK2A,> 10 µM
same,IC50,STK33,> 10 µM
same,IC50,MEK1,> 10 µM
same,IC50,MAP3K10,> 10 µM
same,IC50,SGK1,> 10 µM
same,IC50,InsR,> 10 µM
same,IC50,cMET,> 10 µM
same,IC50,JNK2,> 10 µM
same,IC50,TrkC,> 10 µM
same,IC50,MAP2K3,> 10 µM
same,IC50,BTK,> 10 µM
same,IC50,TNK2,5.1 µM
same,IC50,PKCtheta,5.1 µM
same,IC50,Gsk3b,> 10 µM
same,IC50,MEK2,> 10 µM
same,IC50,FAK,> 10 µM
same,IC50,PAK4KD,> 10 µM
same,IC50,LCK,> 10 µM
same,IC50,Plk3,> 10 µM
same,IC50,EGFR,> 10 µM
same,IC50,Prkcn,> 10 µM
same,IC50,BRAF,> 10 µM
same,IC50,CLK2,> 10 µM
same,IC50,Fyn,> 10 µM
same,IC50,Ck1alpha1,> 10 µM
same,IC50,CDK7/Cyclin H/Mat1,> 10 µM
same,IC50,CAMKK2,> 10 µM
same,IC50,Gsk3a,> 10 µM
same,IC50,Aurora 1,> 5.5 µM
same,IC50,Nek2,> 10 µM
same,IC50,Rock1,< 1 µM and 0.92 µM
same,IC50,CDK8/Cyclin C,> 10 µM
same,IC50,Src,> 10 µM
same,IC50,PKCzeta,> 10 µM
same,IC50,DDR1,> 10 µM
same,IC50,Wee1,> 10 µM
same,IC50,TYRO3,> 10 µM
same,IC50,IKKE,> 10 µM
same,IC50,CSF1R,> 10 µM
same,IC50,TAOK2,> 10 µM
same,IC50,Erk2,> 10 µM
same,IC50,TBK1,> 10 µM
same,IC50,Syk,> 10 µM
